Data taken from patent US12364702B2, “Highly active sting protein agonist compound” (ADLAI NORTYE BIOPHARMA CO., LTD., priority 2018, dated 2025).

Key:
Type in all cases: cell-based
[1] = biological target: T1, STING HAQ variant (Homo sapiens, UniProt Q86WV6, G230A/R293Q/R71H); experiment: SEAP reporter assay in HEK-Blue ISG KO-STING cells transfected with STING HAQ variant (Method 1); settings: 24 h, SEAP signal vs 0.5% DMSO
T1 construct: host or cells: HEK-Blue ISG KO-STING cells (Invivogen, hkb-kostg)
Source text: (§1) Activation of STING can be determined using a SEAP reporter assay in HEK-Blue™ ISG KO-STING cells (Invivogen, cat #hkb-kostg) transfected with plasmids expressing STING variants (WT & HAQ) (referred to WO2017/175147A1). STING variants (WT & HAQ) vector were constructed based on STING-232H vector (Origene, RC208418). GFP vector (VT2069) was bought from Youbio. The detailed protocol as follows: HEK-Blue™ ISG KO-STING cells were harvest and seeding into 96 well plate, the final cell number was 0.8×10^5 cells/well. Transfections were prepared using Lipofectamine 2000 (Invitrogen, Cat #11668-027) following the manufacturer's instructions (Lipo2000/DNA=1/10), 20 ul of transfection suspension containing 1 ng STING vector was added to cell culture plate and incubated at 37° C., 5% CO2 for 24 hours. After 24 hours' incubation, compounds were added at proper concentration, and the final DMSO concentration was 0.5%. After 24 h incubation, the supernatant was collected to detect SEAP signal using Great EscAPe SEAP chemiluminescence KIT (Clontech, cat #631738) and cells were collected to detect cell viability using CellTiter-Glo Luminescent Cell Viability Assay (Promega, cat #G7573) following the manufacturer's instructions. The data were described by the ratio of the stimulating signal of compounds to 0.5% DMSO.

[2] = biological target: T2, STING WT variant (Homo sapiens, UniProt Q86WV6); experiment: SEAP reporter assay in HEK-Blue ISG KO-STING cells transfected with STING WT variant (Method 1); settings: 24 h, SEAP signal vs 0.5% DMSO
T2 construct: host or cells: HEK-Blue ISG KO-STING cells (Invivogen, hkb-kostg)
Source text: as §1

[3] = biological target: STING (Homo sapiens, UniProt Q86WV6); experiment: IFN-β secretion from THP1 by STING activation (hIFNβ ELISA); settings: THP1 cells, 24 h incubation, IFN-β in supernatant, top dose set according to solubility; for EC50: read-out: hIFNβ ELISA (EC50)
Procedure: In this assay, activation of STING by compounds was evaluated by detecting their ability to stimulate the secretion of IFN-β (interferon-beta) from THP1. THP1 was purchased from National Collection of Authenticated Cell Cultures (Cat #TCHu 57). The top dose of compounds was setted according to their solubility. First, Compounds were 3 times diluted with medium, 8-dose points in total. The final DMSO concentration was 0.2%. THP1 during the logarithmic phase was resuspended to 2×10^6 cells/ml in assay medium. The THP1-cell suspension was dispensed into a 96-well U bottom plate containing 50 ul of compound diluted in medium. After 24 h incubation at 37° C., 5% CO2, the supernatant was collected. The concentration of IFN-β in the supernatant was measured using a human IFNβ ELISA KIT (R&D, DY814-05). The data was fitted with GraphPad Prism or XLfit to calculate EC50 values.

[4] = 1 ng STING vector, compound 5 uM
[5] = 1 ng STING vector, compound 2.5 uM

STING, sequence (Q86WV6 whole entry): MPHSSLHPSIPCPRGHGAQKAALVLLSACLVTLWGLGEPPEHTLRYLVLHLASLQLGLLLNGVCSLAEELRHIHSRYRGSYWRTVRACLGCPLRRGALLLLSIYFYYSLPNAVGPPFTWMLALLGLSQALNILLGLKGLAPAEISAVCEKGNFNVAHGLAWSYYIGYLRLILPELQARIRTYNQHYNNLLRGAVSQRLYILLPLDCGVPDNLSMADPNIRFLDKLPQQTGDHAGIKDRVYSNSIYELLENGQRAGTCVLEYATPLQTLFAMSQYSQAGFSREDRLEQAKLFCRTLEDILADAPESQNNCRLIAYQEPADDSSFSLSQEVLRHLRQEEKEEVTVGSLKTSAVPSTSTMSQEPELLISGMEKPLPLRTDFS
T1 sequence (Q86WV6 whole entry R71H/G230A/R293Q): as the sequence (Q86WV6 whole entry) above, with R71H, G230A, R293Q counted along it

Row | Compound | Fold change related to DMSO control HAQ [1, 4] | Fold change related to DMSO control WT [2, 5] | EC50 [3] [µM] | hIFNβ ELISA (EC50, μM) [3] | Fold change related to DMSO control HAQ ([1]; compound 80.2 uM) | Fold change related to DMSO control WT ([2]; compound 80.2 uM)
1 | CCn1nc(C)cc1C(=O)Nc1nc2cc(C(N)=O)cc(OCCOC)c2n1CCC[C@H]1COc2cc(C(N)=O)cc3nc(NC(=O)c4cc(C)nn4CC)n1c23 [Example 19, (S)-3-(3-(5-carbamoyl-2-(1-ethyl-3-methyl-1H-pyrazole-5-carboxamido)-7-(2-methoxyethoxy)-1H-benzo[d]imidazol-1-yl)propyl)-2-(1-ethyl-3-methyl-1H-pyrazole-5-carboxamido)-3,4-dihydro-5-oxa-1,2a-diazaacenaphthylene-7-carboxamide] | 60.17 | 2.33 | 6.2 |  |  | 
2 | CCn1nc(C)cc1C(=O)Nc1nc2cc(C(N)=O)cc(OCCCCNC)c2n1CCC[C@H]1COc2cc(C(N)=O)cc3nc(NC(=O)c4cc(C)nn4CC)n1c23 [Example 23, (S)-3-(3-(5-carbamoyl-2-(1-ethyl-3-methyl-1H-pyrazole-5-carboxamido)-7-(4-(methylamino)butoxy)-1H-benzo[d]imidazol-1-yl)propyl)-2-(1-ethyl-3-methyl-1H-pyrazole-5-carboxamido)-3,4-dihydro-5-oxa-1,2a-diazaacenaphthylene-7-carboxamide] | 38.85 | 2.82 | 1.1 |  |  | 
3 | CCn1nc(C)cc1C(=O)Nc1nc2cc(C(N)=O)cc(OCCOCCOC)c2n1CCC[C@H]1COc2cc(C(N)=O)cc3nc(NC(=O)c4cc(C)nn4CC)n1c23 [Example 25, (S)-3-(3-(5-carbamoyl-2-(1-ethyl-3-methyl-1H-pyrazole-5-carboxamido)-7-(2-(2-methoxyethoxy)ethoxy)-1H-benzo[d]imidazol-1-yl)propyl)-2-(1-ethyl-3-methyl-1H-pyrazole-5-carboxamido)-3,4-dihydro-5-oxa-1,2a-diazaacenaphthylene-7-carboxamide] | 46.51 | 1.95 | 0.7 |  |  | 
4 | CCn1nc(C)cc1C(=O)Nc1nc2cc(C(N)=O)cc(OCCNC)c2n1CCC[C@H]1COc2cc(C(N)=O)cc3nc(NC(=O)c4cc(C)nn4CC)n1c23 [Example 16, (S)-3-(3-(5-carbamoyl-2-(1-ethyl-3-methyl-1H-pyrazole-5-carboxamido)-7-(2-(methylamino)ethoxy)-1H-benzo[d]imidazol-1-yl)propyl)-2-(1-ethyl-3-methyl-1H-pyrazole-5-carboxamido)-3,4-dihydro-5-oxa-1,2a-diazaacenaphthylene-7-carboxamide] | 20.47 | 2.07 | > 17.9 |  |  | 
5 | CCn1nc(C)cc1C(=O)Nc1nc2cc(C(N)=O)cc(OCCCNC(=O)CN(C)C)c2n1CCC[C@H]1COc2cc(C(N)=O)cc3nc(NC(=O)c4cc(C)nn4CC)n1c23 [Example 20, (S)-3-(3-(5-carbamoyl-7-(3-(2-(dimethylamino)acetamido)propoxy)-2-(1-ethyl-3-methyl-1H-pyrazole-5-carboxamido)-1H-benzo[d]imidazol-1-yl)propyl)-2-(1-ethyl-3-methyl-1H-pyrazole-5-carboxamido)-3,4-dihydro-5-oxa-1,2a-diazaacenaphthylene-7-carboxamide] | 41.58 | 2.63 | 11.4 |  |  | 
6 | CCn1nc(C)cc1C(=O)Nc1nc2cc(C(N)=O)cc(OCCCOC)c2n1CC[C@H]1COc2cc(C(N)=O)cc3nc(NC(=O)c4cc(C)nn4CC)n1c23 [Example 7, (S)-3-(2-(5-carbamoyl-2-(1-ethyl-3-methyl-1H-pyrazole-5-carboxamido)-7-(3-methoxypropoxy)-1H-benzo[d]imidazol-1-yl)ethyl)-2-(1-ethyl-3-methyl-1H-pyrazole-5-carboxamido)-3,4-dihydro-5-oxa-1,2a-diazaacenaphthylene-7-carboxamide] |  |  |  | inactive | 20.29 | 1.96

More lines, now with the values ahead:

Row | Fold change related to DMSO control HAQ [1, 4] | Fold change related to DMSO control WT [2, 5] | EC50 [3] [µM] | hIFNβ ELISA (EC50, μM) [3] | Fold change related to DMSO control HAQ ([1]; compound 80.2 uM) | Fold change related to DMSO control WT ([2]; compound 80.2 uM) | Compound
7 | 26.64 | 1.79 | > 3 |  |  |  | CCn1nc(C)c(Br)c1C(=O)Nc1nc2cc(C(N)=O)cc3c2n1[C@@H](CCCn1c(NC(=O)c2cc(C)nn2CCF)nc2cc(C(N)=O)cc(OCCCOC)c21)CO3 [Example 13, (S)-2-(4-bromo-1-ethyl-3-methyl-1H-pyrazole-5-carboxamido)-3-(3-(5-carbamoyl-2-(1-(2-fluoroethyl)-3-methyl-1H-pyrazole-5-carboxamido)-7-(3-methoxypropoxy)-1H-benzo[d]imidazol-1-yl)propyl)-3,4-dihydro-5-oxa-1,2a-diazaacenaphthylene-7-carboxamide]
8 | 26.28 | 1.89 | > 9.1 |  |  |  | CCn1nc(C)cc1C(=O)Nc1nc2cc(C(N)=O)cc3c2n1[C@@H](CCCn1c(NC(=O)c2cc(C)nn2CCF)nc2cc(C(N)=O)cc(OCCCOC)c21)CO3 [Example 12, (S)-3-(3-(5-carbamoyl-2-(1-(2-fluoroethyl)-3-methyl-1H-pyrazole-5-carboxamido)-7-(3-methoxypropoxy)-1H-benzo[d]imidazol-1-yl)propyl)-2-(1-ethyl-3-methyl-1H-pyrazole-5-carboxamido)-3,4-dihydro-5-oxa-1,2a-diazaacenaphthylene-7-carboxamide]
9 | 23.71 | 2.14 |  | inactive |  |  | CCn1nc(C)cc1C(=O)Nc1nc2cc(C(N)=O)cc(OCCCS(C)(=O)=O)c2n1CCC[C@H]1COc2cc(C(N)=O)cc3nc(NC(=O)c4cc(C)nn4CC)n1c23 [Example 37, (S)-3-(3-(5-carbamoyl-2-(1-ethyl-3-methyl-1H-pyrazole-5-carboxamido)-7-(3-(methylsulfonyl)propoxy)-1H-benzo[d]imidazol-1-yl)propyl)-2-(1-ethyl-3-methyl-1H-pyrazole-5-carboxamido)-3,4-dihydro-5-oxa-1,2a-diazaacenaphthylene-7-carboxamide]
10 | 16.31 | 1.88 | 12 |  |  |  | CCn1nc(C)cc1C(=O)Nc1nc2cc(C(N)=O)cc(OCCCNC(=O)C[C@H]3COCCN3)c2n1CCC[C@H]1COc2cc(C(N)=O)cc3nc(NC(=O)c4cc(C)nn4CC)n1c23 [Example 33]
11 | 16.63 | 1.98 |  | inactive |  |  | COCCCOc1cc(C(N)=O)cc2nc(NC(=O)c3cc(C)nn3CCF)n(CCC[C@H]3COc4cc(C(N)=O)cc5nc(NC(=O)c6cc(C)nn6CCF)n3c45)c12 [Example 10, (S)-3-(3-(5-carbamoyl-2-(1-(2-fluoroethyl)-3-methyl-1H-pyrazole-5-carboxamido)-7-(3-methoxypropoxy)-1H-benzo[d]imidazol-1-yl)propyl)-2-(1-(2-fluoroethyl)-3-methyl-1H-pyrazole-5-carboxamido)-3,4-dihydro-5-oxa-1,2a-diazaacenaphthylene-7-carboxamide]
12 | 47.36 | 2.40 | 3.9 |  |  |  | CCn1nc(C)cc1C(=O)Nc1nc2cc(C(N)=O)cc(OCCCNC(C)=O)c2n1CCC[C@H]1COc2cc(C(N)=O)cc3nc(NC(=O)c4cc(C)nn4CC)n1c23 [Example 22, (S)-3-(3-(7-(3-acetamidopropoxy)-5-carbamoyl-2-(1-ethyl-3-methyl-1H-pyrazole-5-carboxamido)-1H-benzo[d]imidazol-1-yl)propyl)-2-(1-ethyl-3-methyl-1H-pyrazole-5-carboxamido)-k, 3,4-dihydro-5-oxa-1,2a-diazaacenaphthylene-7-carboxamide]
